The source of these data is patent publication US9249180B2, “C-3 alkyl and alkenyl modified betulinic acid derivatives” (priority 2013, dated 2016).

The test system of this test is recombinant NL4-3 virus (Renilla luciferase in nef, Gag P373S; NLRluc) in MT-2 cells. The experiment in a line: HIV Cell Culture Assay (luciferase reporter, antiviral activity). The format is cell-based. Particulars: Renilla, NL43, MT-2 cells infected for 4-5 days with NLRluc recombinants, serial dilutions of the inhibitor. The protocol: HIV Cell Culture Assay—MT-2 cells and 293T cells were obtained from the NIH AIDS Research and Reference Reagent Program. MT-2 cells were propagated in RPMI 1640 media supplemented with 10% heat inactivated fetal bovine serum, […]. The 293T cells were propagated in DMEM media supplemented with 10% heat inactivated fetal bovine serum (FBS), 100 units/ml penicillin G and 100 μg/ml streptomycin. The proviral DNA clone of NL4-3 was obtained from the NIH AIDS Research and Reference Reagent Program. A recombinant NL4-3 virus, in which a section of the nef gene from NL4-3 was replaced with the Renilla luciferase gene, was used as a reference virus. In addition, residue Gag P373 was converted to P373S. Briefly, the recombinant virus was prepared by transfection of the altered proviral clone of NL4-3. Transfections were performed in 293T cells using LipofectAMINE PLUS from Invitrogen (Carlsbad, Calif.), according to manufacturer's instruction. The virus was titered in MT-2 cells using luciferase enzyme activity as a marker. Luciferase was quantitated using the Dual Luciferase kit from Promega (Madison, Wis.), with modifications to the manufacturer's protocol. The diluted Passive Lysis solution was pre-mixed with the re-suspended Luciferase Assay Reagent and the re-suspended Stop & Glo Substrate (2:1:1 ratio). Fifty (50) μL of the mixture was added to each aspirated well on assay plates and luciferase activity was measured immediately on a Wallac TriLux (Perkin-Elmer). Antiviral activities of inhibitors toward the recombinant virus were quantified by measuring luciferase activity in cells infected for 4-5 days with NLRluc recombinants in the presence serial dilutions of the inhibitor.
(In general: In a reporter assay the amount or activity of a reporter protein is the signal.)
For the compound `C=C(C)[C@@H]1CC[C@]2(NCCN3CCS(=O)(=O)CC3)CC[C@]3(C)[C@H](CC[C@@H]4[C@@]5(C)CC=C(CCC(C)(C)CC(=O)NC#N)C(C)(C)[C@@H]5CC[C@]43C)[C@@H]12` [Example 14, N-cyano-5-((1R,3aS,5aR,5bR,7aR,11aS,11bR,13aR,13bR)-3a-((2-(1,1-dioxidothiomorpholino)ethyl)amino)-5a,5b,8,8,11a-pentamethyl-1-(prop-1-en-2-yl)-2,3,3a,4,5,5a,5b,6,7,7a,8,11,11a,11b,12,13,13a,13b-octadecahydro-1H-cyclopenta[a]chrysen-9-yl)-3,3-dimethylpentanamide], the concentration for a half-maximal effect (EC50) was determined as 4.7 nM. `C=C(C)[C@@H]1CC[C@]2(NCCN3CCS(=O)(=O)CC3)CC[C@]3(C)[C@H](CC[C@@H]4[C@@]5(C)CC=C(CCC(C)(C)CC(=O)NS(C)(=O)=O)C(C)(C)[C@@H]5CC[C@]43C)[C@@H]12` [Example 15, 5-((1R,3aS,5aR,5bR,7aR,11aS,11bR,13aR,13bR)-3a-((2-(1,1-dioxidothiomorpholino)ethyl)amino)-5a,5b,8,8,11a-pentamethyl-1-(prop-1-en-2-yl)-2,3,3a,4,5,5a,5b,6,7,7a,8,11,11a,11b,12,13,13a,13b-octadecahydro-1H-cyclopenta[a]chrysen-9-yl)-3,3-dimethyl-N-(methylsulfonyl)pentanamide]: the EC50 turned out to be 1.6 nM. Then `CC(C)[C@@H]1CC[C@]2(NCCN3CCS(=O)(=O)CC3)CC[C@]3(C)[C@H](CC[C@@H]4[C@@]5(C)CCC(CCCCC(=O)O)C(C)(C)[C@@H]5CC[C@]43C)[C@@H]12` (stereo partly drawn) [Example 16, 5-((1S,3aS,5aR,5bR,7aS,11aS,11bR,13aR,13bR)-3a-((2-(1,1-dioxidothiomorpholino)ethyl)amino)-1-isopropyl-5a,5b,8,8,11a-pentamethylicosahydro-1H-cyclopenta[a]chrysen-9-yl)pentanoic acid], with 1 nM. Then `CC(C)[C@@H]1CC[C@]2(NCCN3CCS(=O)(=O)CC3)CC[C@]3(C)[C@H](CC[C@@H]4[C@@]5(C)CCC(CCCC(C)(C)C(=O)O)C(C)(C)[C@@H]5CC[C@]43C)[C@@H]12` (stereo partly drawn) [Example 17, 5-((1S,3aS,5aR,5bR,7aS,11aS,11bR,13aR,13bR)-3a-((2-(1,1-dioxidothiomorpholino)ethyl)amino)-1-isopropyl-5a,5b,8,8,11a-pentamethylicosahydro-1H-cyclopenta[a]chrysen-9-yl)-2,2-dimethylpentanoic acid], with 7.3 nM; and `C=C(C)[C@@H]1CC[C@]2(NCCN3CCC(S(C)(=O)=O)CC3)CC[C@]3(C)[C@H](CC[C@@H]4[C@@]5(C)CC=C(CCC(C)(C)CC(=O)O)C(C)(C)[C@@H]5CC[C@]43C)[C@@H]12` [Example 18, 3,3-dimethyl-5-((1R,3aS,5aR,5bR,7aR,11aS,11bR,13aR,13bR)-5a,5b,8,8,11a-pentamethyl-3a-((2-(4-(methylsulfonyl)piperidin-1-yl)ethyl)amino)-1-(prop-1-en-2-yl)-2,3,3a,4,5,5a,5b,6,7,7a,8,11,11a,11b,12,13,13a,13b-octadecahydro-1H-cyclopenta[a]chrysen-9-yl)pentanoic acid], with 1.1 nM; and `C=C(C)[C@@H]1CC[C@]2(C(=O)O)CC[C@]3(C)[C@H](CC[C@@H]4[C@@]5(C)CC=C(CCC(=O)O)C(C)(C)[C@@H]5CC[C@]43C)[C@@H]12` [Example 19, (1R,3aS,5aR,5bR,7aR,11aS,13aR,13bR)-9-(2-carboxyethyl)-5a,5b,8,8,11a-pentamethyl-1-(prop-1-en-2-yl)-2,3,3a,4,5,5a,5b,6,7,7a,8,11,11a,11b,12,13,13a,13b-octadecahydro-1H-cyclopenta[a]chrysene-3a-carboxylic acid], with 470 nM. For `C=C(C)[C@@H]1CC[C@]2(NCCN3CCS(=O)(=O)CC3)CC[C@]3(C)[C@H](CC[C@@H]4[C@@]5(C)CC=C(C=C6CCC(C(=O)O)CC6)C(C)(C)[C@@H]5CC[C@]43C)[C@@H]12` (stereo partly drawn) [Example A1, 4-(((1R,3aS,5aR,5bR,7aR,11aS,11bR,13aR,13bR)-3a-((2-(1,1-dioxidothiomorpholino)ethyl)amino)-5a,5b,8,8,11a-pentamethyl-1-(prop-1-en-2-yl)-2,3,3a,4,5,5a,5b,6,7,7a,8,11,11a,11b,12,13,13a,13b-octadecahydro-1H-cyclopenta[a]chrysen-9-yl)methylene)cyclohexanecarboxylic acid] the value was 3.55 nM. With `C=C(C)[C@@H]1CC[C@]2(NCCN3CCS(=O)(=O)CC3)CC[C@]3(C)[C@H](CC[C@@H]4[C@@]5(C)CC=C(/C=C/c6ccc(C(=O)O)cc6)C(C)(C)[C@@H]5CC[C@]43C)[C@@H]12` [Example B1, 4-((E)-2-((1R,3aS,5aR,5bR,7aR,11aS,11bR,13aR,13bR)-3a-((2-(1,1-dioxidothiomorpholino)ethyl)amino)-5a,5b,8,8,11a-pentamethyl-1-(prop-1-en-2-yl)-2,3,3a,4,5,5a,5b,6,7,7a,8,11,11a,11b,12,13,13a,13b-octadecahydro-1H-cyclopenta[a]chrysen-9-yl)vinyl)benzoic acid], the EC50 stood at 10 nM. For `C=C(C)[C@@H]1CC[C@]2(NCCN3CCS(=O)(=O)CC3)CC[C@]3(C)[C@H](CC[C@@H]4[C@@]5(C)CC=C(/C=C/C6CC6(NC(=O)OC(C)(C)C)C(=O)O)C(C)(C)[C@@H]5CC[C@]43C)[C@@H]12` (stereo partly drawn) [Example B2, 1-((tert-butoxycarbonyl)amino)-2-((E)-2-((1R,3aS,5aR,5bR,7aR,11aS,11bR,13aR,13bR)-3a-((2-(1,1-dioxidothiomorpholino)ethyl)amino)-5a,5b,8,8,11a-pentamethyl-1-(prop-1-en-2-yl)-2,3,3a,4,5,5a,5b,6,7,7a,8,11,11a,11b,12,13,13a,13b-octadecahydro-1H-cyclopenta[a]chrysen-9-yl)vinyl)cyclopropanecarboxylic acid] the value was 40 nM; for `C=C(C)[C@@H]1CC[C@]2(NCCN3CCC(S(C)(=O)=O)CC3)CC[C@]3(C)[C@H](CC[C@@H]4[C@@]5(C)CC=C(C=C6CC(C(=O)O)C6)C(C)(C)[C@@H]5CC[C@]43C)[C@@H]12` (stereo partly drawn) [Example B4, 3-(((1R,3aS,5aR,5bR,7aR,11aS,11bR,13aR,13bR)-5a,5b,8,8,11a-pentamethyl-3a-((2-(4-(methylsulfonyl)piperidin-1-yl)ethyl)amino)-1-(prop-1-en-2-yl)-2,3,3a,4,5,5a,5b,6,7,7a,8,11,11a,11b,12,13,13a,13b-octadecahydro-1H-cyclopenta[a]chrysen-9-yl)methylene)cyclobutanecarboxylic acid], 0.6 nM.

As a reminder, the EC50 is the concentration needed to bring the measured effect to its halfway point.
